Measurements published in patent US10766912B2 (priority 2017, dated 2020).

Tests used:
[1] = test system: HCV GT1b/6a NS5A chimeric replicon; test: Assay Example 1: activity against HCV GT1b/6a NS5A chimeric replicon; type: cell-based; details: Hepatitis C virus, Huh-7, 72 h, read-out: EC50 value GT1b/6a NS5A chimeric replicon
Protocol: (§1) Cells: Huh 7 cell line and HCV GT1b/3a and GT1b/6a NS5A chimeric replicons and GT1b and GT1a wild-type replicon RNA.
(§2) Treatment of Compound: According to the assay final concentrations of the compounds in Table 2, DMSO stock solutions of the compounds were diluted and then added to a 96-well assay plate. The final concentration of DMSO was 0.5%.
(§3) The preparation of cells: After replicon plasmid DNA was linearized with a corresponding restriction enzyme, the DNA was transcribed into RNA by using T7RNA polymerase. Replicon RNA prepared by transcription in vitro was transfected into Huh-7 cells by electroporation. Transfected cells were seeded at a density of 10,000 cells per well into the 96-well assay plate containing the diluted compounds, and then the plate was placed in a 37° C. incubator with 5% CO2 and cultured for 3 days.
(§4) Drug activity assay: Luminescence signal value (RLU) was detected with Envision within 15 minutes using the luciferase assay reagent Britelite plus, and the original data (RLU) was used for the calculation of the activity of the compounds.
The activity of the compounds was calculated by using the equation below: Inhibition %=(ZPE−CPD)/(ZPE−HPE)×100%*
(§5) The cell viability percentages (Viability %) and the inhibition percentages (Inhibition %) were imported into GraphPad Prism software, respectively, and curves were fitted by using nonlinear regression method to obtain the corresponding curves of the compounds, and the cytotoxicity (CC50) thereof and inhibitory activity (EC50) values against the HCV replicon thereof.

[2] = test system: HCV GT1b/5a NS5A chimeric replicon; test: Assay Example 2: activity against GT1b/5a NS5A chimeric replicon; type: cell-based; details: Hepatitis C virus, Huh-7, 72 h, read-out: EC50 Value GT1b/5a-NS5A-wt
Protocol: Cells: Huh-7 cells are liver cancer cell strains (from AppTec, USA), HCV GT1a and GT1b wild type (wt) replicons, GT1b/3a, GT1b/4a, GT1b/5a and GT1b/6a NS5A chimeric replicons.
Treatment of Compound: According to the assay final concentrations of the compounds in Table 5, DMSO stock solutions of the compounds were diluted and then added to a 96-well assay plate. The final concentration of DMSO was 0.5%.
as §3, with “T7 RNA” for “T7RNA”, “then” for “then the plate was”
as §4
The cytotoxicity of the compounds was calculated by using the equation below: Cell Viability %=(CPD−HPE)/(ZPE−HPE)×100%* The activity of the compounds was calculated by using the equation below: Inhibition %=(ZPE−CPD)/(ZPE−HPE)×100%*
as §5, with “thereof and the inhibitory activity” for “thereof and inhibitory activity”

in vitro = type: cell-based; details: human; Huh 7 cells with GT1b wild-type replicon, 3 days, CellTiter-Fluor
Protocol: as §1, §2, §3
Cell viability assay: A cell growth fluorescent titration detection reagent CellTiter-Fluor was added to the 96-well plate of the GT1b wild-type replicon. After the cells were cultured for 1 hour in a 37° C. incubator with 5% CO2, the fluorescence signal value (RFU) was detected by Envision, and the original data (RFU) was used for the calculation of the cytotoxicity of the compounds.
The cytotoxicity of the compounds was calculated by using the equation below: Cell Viability %=(CPD−HPE)/(ZPE−HPE)×100%*
as §5

[3] = Assay Example 5: distribution in mouse plasma and liver tissue; type: in vivo; details: 10 mg/kg intragastric; for Kp at 0.5 h / Kp at 3 h / Kp at 8 h: male, oral, liver/plasma, read-out: Ratio (L/P)
Protocol: Eighteen male mice were randomly divided into two groups, fasted (free access to water) overnight, and then intragastrically administered with 10 mg/kg of Compound 1a and Compound 6b, respectively. The subject animals were sacrificed by bloodletting at 0.5 h, 3 h and 8 h after administration. About 1 mL of blood was taken, and anticoagulated with EDTA-K2. The blood samples were immediately placed in ice, and then transferred within 30 min to centrifuge and separate plasma at 4° C. and 4,000 rpm for 10 min. Meanwhile, the whole liver was taken out at the various time points, rinsed with ice-cold physiological saline, blotted dry, weighed, and prepared into a homogenate with physiological saline (W/V=1:5). All plasma and liver homogenates were collected and then immediately stored at −20° C. for testing.
The mice can be fed at 4 h after administration.
After being completely melted, all the samples were vortexed to mix evenly. 50 μL of the samples were pipetted into a 1.5 mL centrifuge tube respectively and then 200 μL of IS-D (20 ng/ml diazepam acetonitrile) solution was added to each sample (200 μL of acetonitrile was added to the blank sample). The samples were vortexed for 10 min and then centrifuged at 12,000 rpm and 4° C. for 10 min. After 80 μL of pure water was added to a 96-well plate, 80 μL of the supernatants were pipetted respectively from the centrifuge tubes to the 96-well plate, vortexed for 3 min, and then kept at 4° C. until LC-MS/MS injection analysis.

[4] = Assay Example 3: parallel cytotoxicity assay (alamarBlue) without viral infection; type: cell-based; details: human, Huh7.5.1 cells without viral infection, no viral infection, read-out: CC50 Value HCVcc
Protocol: Cells: Huh7.5.1 cells and hepatitis C virus HCVcc (GT2a, JFH-1) infection system.
Treatment of Compound: According to the assay final concentrations of the compounds in Table 6, DMSO stock solutions of the compounds were diluted and then added to a 96-well assay plate. The final concentration of DMSO was 0.5%.
Viral infection: Huh7.5.1 cells were seeded in a 96-well cell culture plate, and the cells were cultured overnight at 37° C. in an incubator with 5% CO2 for later use. The compound and the HCVcc virus solution (MOI=0.1) were simultaneously added to the cells, and the virus infection was cultured for 3 days. Parallel cytotoxicity assay was identical to the method for the inhibition of the virus but without viral infection.
Cell viability assay: Cell viability was detected by the addition of alamarBlue assay reagent. The original data (RFU) was used for the calculation of the cytotoxicity of the compounds.
The cytotoxicity of the compounds was calculated by using the equation below: Cell Viability %=CPD/CC×100%*
as §5, with “(Cell Viability” for “(Viability”, “compound activity” for “inhibition”

Work on `COC(=O)N[C@H](C(=O)N1CCC[C@H]1C(=O)Nc1ccc([C@@H]2CC[C@@H](c3ccc(NC(=O)[C@@H]4CCCN4C(=O)[C@@H](NC(=O)OC)[C@@H](C)OC)cc3)N2c2cc(F)c(N3CC[Si](C)(C)CC3)c(F)c2)cc1)[C@@H](C)OC` [Compound 1a, Methyl ((2S,2′S,3R,3′R)-((2S,2′S)-(((((2S,5S)-1-(4-(4,4-dimethylazasilinan-1-yl)-3,5-difluorophenyl)pyrrolidin-2,5-diyl)bis(4,1-phenylene))bis(azanediyl))bis(carbonyl))bis(pyrrolidin-2,1-diyl))bis(3-methoxy-1-oxobutan-1,2-diyl))dicarbamate] yielded an EC50 [1] of 0.017 nM, an EC50 [2] of 0.00162 nM and a CC50 (in vitro) greater than 0.1 nM. It also gave a Liver concentration ([3]; 0.5 h) of 337 ± 33.1, a Plasma concentration ([3]; 0.5 h) of 139 ± 16.9 and a Liver concentration ([3]; 3 h) of 2644 ± 147.3. It also gave a Plasma concentration ([3]; 3 h) of 384 ± 81, a Liver concentration ([3]; 8 h) of 334 ± 73.9 and a Plasma concentration ([3]; 8 h) of 59 ± 7.8. It also gave a Kp at 0.5 h ([3]; 0.5 h) of 2.43, a Kp at 3 h ([3]; 3 h) of 6.89 and a Kp at 8 h ([3]; 8 h) of 5.67. For the same molecule, the CC50 at 3 days [4] was greater than 0.1 nM.

Molecule `COC(=O)N[C@H](C(=O)N1CCC[C@H]1C(=O)Nc1ccc([C@H]2CC[C@H](c3ccc4nc([C@@H]5CCCN5C(=O)[C@@H](NC(=O)OC)[C@@H](C)OC)[nH]c4c3)N2c2cc(F)c(N3CC[Si](C)(C)CC3)c(F)c2)cc1)[C@@H](C)OC` [Compound 6b] has an EC50 [1] of 0.0054 nM, an EC50 [2] of 0.00432 nM and a CC50 (in vitro) greater than 0.1 nM. The Liver concentration ([3]; 0.5 h) was 401 ± 116, the Plasma concentration ([3]; 0.5 h) was 226 ± 66 and the Liver concentration ([3]; 3 h) was 960 ± 530. The Plasma concentration ([3]; 3 h) was 464 ± 363.3, the Liver concentration ([3]; 8 h) was 18 ± 1 and the Plasma concentration ([3]; 8 h) was 10 ± 5.8. The Kp at 0.5 h ([3]; 0.5 h) was 1.78, the Kp at 3 h ([3]; 3 h) was 2.07 and the Kp at 8 h ([3]; 8 h) was 1.76. The CC50 at 3 days [4] was greater than 0.1 nM.
